# Measured values as given in the kinase profiling compilation of Christmann-Franck et al. (2016).
# Legend:
# Assay in all cases: radiometric filter-binding kinase assay, Kinase HotSpot
# Settings in all cases: compound 0.5 µM; ATP 10 µM
# ABL1 (human) = ABL1 (human) (UniProt P00519)
# AURKA (human) = AURKA (human) (UniProt O14965)
# CAMK4 (human) = CAMK4 (human) (UniProt Q16566)
# CAMKK1 (human) = CAMKK1 (human) (UniProt Q8N5S9)
# CDK1 CCNA2 (human) = CDK1 CCNA2 (human) (UniProt P06493+P20248)
# CDK5 CDK5R1 p25 (human) = CDK5 CDK5R1 p25 (human) (UniProt Q00535+Q15078)
# CHEK2 (human) = CHEK2 (human) (UniProt O96017)
# CSNK1G3 (human) = CSNK1G3 (human) (UniProt Q9Y6M4)
# DAPK3 (human) = DAPK3 (human) (UniProt O43293)
# DYRK1A (human) = DYRK1A (human) (UniProt Q13627)
# EPHA1 (human) = EPHA1 (human) (UniProt P21709)
# EPHA3 (human) = EPHA3 (human) (UniProt P29320)
# FGFR3 (human) = FGFR3 (human) (UniProt P22607)
# Sequence of FGFR3 (human) (P22607 whole entry, looked up): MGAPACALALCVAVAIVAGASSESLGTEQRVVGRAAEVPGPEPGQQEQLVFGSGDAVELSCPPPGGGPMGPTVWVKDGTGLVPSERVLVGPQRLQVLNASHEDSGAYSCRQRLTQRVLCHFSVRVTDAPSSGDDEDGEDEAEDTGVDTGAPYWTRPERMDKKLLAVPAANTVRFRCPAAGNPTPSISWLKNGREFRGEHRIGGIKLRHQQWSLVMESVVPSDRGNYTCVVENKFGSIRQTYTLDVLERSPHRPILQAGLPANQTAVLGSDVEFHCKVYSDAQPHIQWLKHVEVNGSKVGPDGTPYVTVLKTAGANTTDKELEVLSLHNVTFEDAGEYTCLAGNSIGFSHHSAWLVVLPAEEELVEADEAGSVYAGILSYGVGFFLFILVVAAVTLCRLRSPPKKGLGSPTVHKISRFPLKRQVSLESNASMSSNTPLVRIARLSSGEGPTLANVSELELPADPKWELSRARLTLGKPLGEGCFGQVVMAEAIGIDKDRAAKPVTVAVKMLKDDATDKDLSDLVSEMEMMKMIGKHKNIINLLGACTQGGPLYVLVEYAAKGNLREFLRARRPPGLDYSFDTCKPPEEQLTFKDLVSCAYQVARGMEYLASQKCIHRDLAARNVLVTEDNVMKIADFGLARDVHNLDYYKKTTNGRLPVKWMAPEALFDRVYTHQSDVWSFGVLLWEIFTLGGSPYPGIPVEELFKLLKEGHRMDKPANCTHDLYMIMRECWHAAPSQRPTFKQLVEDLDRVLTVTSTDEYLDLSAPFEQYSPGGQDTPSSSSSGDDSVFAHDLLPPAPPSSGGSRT
# FLT1 (human) = FLT1 (human) (UniProt P17948)
# Sequence of FLT1 (human) (P17948 whole entry, looked up): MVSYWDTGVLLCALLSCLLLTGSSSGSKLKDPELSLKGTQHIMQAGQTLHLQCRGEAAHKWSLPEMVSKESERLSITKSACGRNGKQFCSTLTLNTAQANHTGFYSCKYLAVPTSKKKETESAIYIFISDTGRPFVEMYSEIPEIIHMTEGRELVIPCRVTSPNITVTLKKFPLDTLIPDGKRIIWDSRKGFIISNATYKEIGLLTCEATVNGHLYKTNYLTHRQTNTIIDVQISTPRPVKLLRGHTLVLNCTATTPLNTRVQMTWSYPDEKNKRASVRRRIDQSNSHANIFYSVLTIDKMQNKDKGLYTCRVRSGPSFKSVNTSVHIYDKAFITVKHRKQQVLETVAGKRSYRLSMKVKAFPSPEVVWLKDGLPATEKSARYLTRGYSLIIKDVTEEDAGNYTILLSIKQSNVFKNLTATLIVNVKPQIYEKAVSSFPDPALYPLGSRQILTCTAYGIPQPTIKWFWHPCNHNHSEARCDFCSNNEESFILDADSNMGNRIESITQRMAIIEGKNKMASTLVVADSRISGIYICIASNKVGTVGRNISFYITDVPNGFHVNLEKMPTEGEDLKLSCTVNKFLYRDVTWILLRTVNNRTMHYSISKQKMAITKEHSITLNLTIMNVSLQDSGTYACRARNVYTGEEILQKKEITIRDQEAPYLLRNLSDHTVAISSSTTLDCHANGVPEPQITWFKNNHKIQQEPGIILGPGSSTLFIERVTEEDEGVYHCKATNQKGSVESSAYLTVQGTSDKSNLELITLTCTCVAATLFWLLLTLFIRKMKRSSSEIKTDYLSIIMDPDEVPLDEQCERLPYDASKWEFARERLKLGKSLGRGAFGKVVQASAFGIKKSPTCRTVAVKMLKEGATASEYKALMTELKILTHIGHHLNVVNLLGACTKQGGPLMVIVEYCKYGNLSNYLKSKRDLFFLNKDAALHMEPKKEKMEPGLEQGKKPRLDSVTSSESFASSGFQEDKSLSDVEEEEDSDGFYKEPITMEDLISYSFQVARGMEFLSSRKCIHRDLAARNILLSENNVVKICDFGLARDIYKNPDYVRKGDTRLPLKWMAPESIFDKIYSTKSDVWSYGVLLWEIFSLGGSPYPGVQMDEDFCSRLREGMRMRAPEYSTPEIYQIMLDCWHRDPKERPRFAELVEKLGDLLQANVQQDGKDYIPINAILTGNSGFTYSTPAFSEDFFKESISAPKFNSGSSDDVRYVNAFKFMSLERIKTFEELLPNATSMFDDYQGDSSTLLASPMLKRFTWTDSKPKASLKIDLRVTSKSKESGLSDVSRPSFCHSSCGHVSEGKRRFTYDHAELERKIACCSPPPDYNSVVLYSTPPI
# FLT3 (human) = FLT3 (human) (UniProt P36888)
# FRK (human) = FRK (human) (UniProt P42685)
# GRK4 (human) = GRK4 (human) (UniProt P32298)
# GRK5 (human) = GRK5 (human) (UniProt P34947)
# Sequence of GRK5 (human) (P34947 whole entry, looked up): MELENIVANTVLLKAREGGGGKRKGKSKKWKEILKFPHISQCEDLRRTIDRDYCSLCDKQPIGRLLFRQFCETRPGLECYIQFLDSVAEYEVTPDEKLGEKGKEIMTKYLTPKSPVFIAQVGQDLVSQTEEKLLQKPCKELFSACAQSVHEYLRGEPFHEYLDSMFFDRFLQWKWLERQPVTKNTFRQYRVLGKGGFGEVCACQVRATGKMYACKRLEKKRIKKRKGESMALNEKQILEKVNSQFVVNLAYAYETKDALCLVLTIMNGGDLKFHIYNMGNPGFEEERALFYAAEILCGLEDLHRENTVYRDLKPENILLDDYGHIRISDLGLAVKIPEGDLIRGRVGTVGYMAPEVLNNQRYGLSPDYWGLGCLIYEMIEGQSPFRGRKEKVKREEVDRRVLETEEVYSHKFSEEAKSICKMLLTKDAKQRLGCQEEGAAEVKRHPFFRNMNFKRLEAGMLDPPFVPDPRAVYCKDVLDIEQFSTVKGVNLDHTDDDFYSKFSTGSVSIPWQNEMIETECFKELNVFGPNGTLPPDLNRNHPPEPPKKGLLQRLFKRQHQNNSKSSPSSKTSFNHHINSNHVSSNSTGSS
# GSK3A (human) = GSK3A (human) (UniProt P49840)
# HIPK2 (human) = HIPK2 (human) (UniProt Q9H2X6)
# IKBKE (human) = IKBKE (human) (UniProt Q14164)
# MAP2K2 (human) = MAP2K2 (human) (UniProt P36507)
# MAPKAPK3 (human) = MAPKAPK3 (human) (UniProt Q16644)
# MAPKAPK5 (human) = MAPKAPK5 (human) (UniProt Q8IW41)
# Sequence of MAPKAPK5 (human) (Q8IW41 whole entry, looked up): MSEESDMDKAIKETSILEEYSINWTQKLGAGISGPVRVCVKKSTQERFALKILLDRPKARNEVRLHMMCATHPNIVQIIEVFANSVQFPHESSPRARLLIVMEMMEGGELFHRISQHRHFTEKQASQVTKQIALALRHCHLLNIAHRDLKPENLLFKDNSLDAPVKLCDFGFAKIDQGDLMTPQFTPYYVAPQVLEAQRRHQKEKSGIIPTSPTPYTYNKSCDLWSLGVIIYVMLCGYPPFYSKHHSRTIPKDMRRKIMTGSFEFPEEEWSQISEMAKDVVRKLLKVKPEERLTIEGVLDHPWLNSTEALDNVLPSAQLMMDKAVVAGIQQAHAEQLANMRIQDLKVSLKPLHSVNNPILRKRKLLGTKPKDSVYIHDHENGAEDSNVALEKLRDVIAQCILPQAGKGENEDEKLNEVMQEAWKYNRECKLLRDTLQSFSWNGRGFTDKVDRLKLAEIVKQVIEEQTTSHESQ
# MARK4 (human) = MARK4 (human) (UniProt Q96L34)
# MELK (human) = MELK (human) (UniProt Q14680)
# MST1R (human) = MST1R (human) (UniProt Q04912)
# NEK6 (human) = NEK6 (human) (UniProt Q9HC98)
# NEK7 (human) = NEK7 (human) (UniProt Q8TDX7)
# PAK2 (human) = PAK2 (human) (UniProt Q13177)
# PBK (human) = PBK (human) (UniProt Q96KB5)
# PHKG2 (human) = PHKG2 (human) (UniProt P15735)
# PRKCB1 (human) = PRKCB1 (human) (UniProt P05771)
# PRKCG (human) = PRKCG (human) (UniProt P05129)
# PRKCH (human) = PRKCH (human) (UniProt P24723)
# Sequence of PRKCH (human) (P24723 whole entry, looked up): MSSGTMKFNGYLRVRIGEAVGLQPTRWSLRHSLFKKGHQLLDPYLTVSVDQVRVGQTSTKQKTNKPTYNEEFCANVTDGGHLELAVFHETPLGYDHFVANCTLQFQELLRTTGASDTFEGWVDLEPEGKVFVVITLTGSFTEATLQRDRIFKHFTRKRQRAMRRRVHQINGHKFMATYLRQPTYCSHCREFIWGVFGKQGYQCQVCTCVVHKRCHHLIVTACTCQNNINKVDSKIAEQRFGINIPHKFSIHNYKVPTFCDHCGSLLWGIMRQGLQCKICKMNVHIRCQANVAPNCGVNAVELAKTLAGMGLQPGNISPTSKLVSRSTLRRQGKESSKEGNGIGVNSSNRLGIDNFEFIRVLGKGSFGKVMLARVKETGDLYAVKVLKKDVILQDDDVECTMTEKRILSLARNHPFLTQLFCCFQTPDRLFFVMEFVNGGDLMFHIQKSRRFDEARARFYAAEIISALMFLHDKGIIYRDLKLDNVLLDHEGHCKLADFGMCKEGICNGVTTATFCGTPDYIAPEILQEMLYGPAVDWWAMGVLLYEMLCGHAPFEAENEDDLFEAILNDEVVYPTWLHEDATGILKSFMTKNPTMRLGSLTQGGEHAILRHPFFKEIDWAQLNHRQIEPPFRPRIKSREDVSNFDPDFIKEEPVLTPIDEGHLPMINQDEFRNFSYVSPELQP
# PRKD3 (human) = PRKD3 (human) (UniProt O94806)
# PRKG2 (human) = PRKG2 (human) (UniProt Q13237)
# ROCK1 (human) = ROCK1 (human) (UniProt Q13464)
# [1] = system: SGK1 (human), O00141 [S422D]
# SRPK1 (human) = SRPK1 (human) (UniProt Q96SB4)
# SRPK2 (human) = SRPK2 (human) (UniProt P78362)
# TSSK1B (human) = TSSK1B (human) (UniProt Q9BXA7)
# Sequence of CAMK4 (human) (Q16566 whole entry, looked up): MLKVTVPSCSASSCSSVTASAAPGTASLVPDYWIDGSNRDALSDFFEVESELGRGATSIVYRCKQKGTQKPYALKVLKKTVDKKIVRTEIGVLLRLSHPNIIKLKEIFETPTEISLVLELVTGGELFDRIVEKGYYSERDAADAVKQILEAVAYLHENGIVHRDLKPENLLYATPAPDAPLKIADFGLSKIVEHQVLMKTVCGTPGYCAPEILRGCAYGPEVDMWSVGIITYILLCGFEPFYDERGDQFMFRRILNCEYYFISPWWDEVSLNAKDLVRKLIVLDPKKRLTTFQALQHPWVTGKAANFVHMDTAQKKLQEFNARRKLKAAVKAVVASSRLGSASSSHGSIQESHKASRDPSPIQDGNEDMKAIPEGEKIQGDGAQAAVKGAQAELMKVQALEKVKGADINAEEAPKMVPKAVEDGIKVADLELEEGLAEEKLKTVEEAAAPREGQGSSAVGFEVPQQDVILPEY
smiles,measurement,setting,value
N#C/C(=C1/Nc2ccccc2S1)c1ccnc(NCCc2cccnc2)n1,residual activity,ABL1 (human),96.3%
same,residual activity,AURKA (human),83.8%
same,residual activity,CAMK4 (human),99%
same,residual activity,CAMKK1 (human),101%
same,residual activity,CDK1 CCNA2 (human),83%
same,residual activity,CDK5 CDK5R1 p25 (human),90%
same,residual activity,CHEK2 (human),93.9%
same,residual activity,CSNK1G3 (human),87.1%
same,residual activity,DAPK3 (human),109%
same,residual activity,DYRK1A (human),52.7%
same,residual activity,EPHA1 (human),95.5%
same,residual activity,EPHA3 (human),75.1%
same,residual activity,FGFR3 (human),98.2%
same,residual activity,FLT1 (human),74%
same,residual activity,FLT3 (human),58.2%
same,residual activity,FRK (human),97.5%
same,residual activity,GRK4 (human),103%
same,residual activity,GRK5 (human),93.8%
same,residual activity,GSK3A (human),2.42%
same,residual activity,HIPK2 (human),95.8%
same,residual activity,IKBKE (human),90.3%
same,residual activity,MAP2K2 (human),76.2%
same,residual activity,MAPKAPK3 (human),102%
same,residual activity,MAPKAPK5 (human),98.3%
same,residual activity,MARK4 (human),91.6%
same,residual activity,MELK (human),91.7%
same,residual activity,MST1R (human),93.5%
same,residual activity,NEK6 (human),101%
same,residual activity,NEK7 (human),88.2%
same,residual activity,PAK2 (human),103%
same,residual activity,PBK (human),99.7%
same,residual activity,PHKG2 (human),99.5%
same,residual activity,PRKCB1 (human),90.8%
same,residual activity,PRKCG (human),92.2%
same,residual activity,PRKCH (human),98.7%
same,residual activity,PRKD3 (human),64.7%
same,residual activity,PRKG2 (human),98.1%
same,residual activity,ROCK1 (human),93.2%
same,residual activity,[1],100%
same,residual activity,SRPK1 (human),97%
same,residual activity,SRPK2 (human),97.1%
same,residual activity,TSSK1B (human),99%
O=C1NC(=O)c2c1c1c3ccccc3[nH]c1c1[nH]c3cc(Br)ccc3c21,residual activity,ABL1 (human),83.3%
same,residual activity,AURKA (human),60.7%
same,residual activity,CAMK4 (human),96.2%
same,residual activity,CAMKK1 (human),99.1%
same,residual activity,CDK1 CCNA2 (human),91.9%
same,residual activity,CDK5 CDK5R1 p25 (human),43.4%
same,residual activity,CHEK2 (human),37.5%
same,residual activity,CSNK1G3 (human),94.6%
same,residual activity,DAPK3 (human),62.9%
same,residual activity,DYRK1A (human),84%
same,residual activity,EPHA1 (human),98.1%
same,residual activity,EPHA3 (human),100%
same,residual activity,FGFR3 (human),86.2%
same,residual activity,FLT1 (human),56.5%
same,residual activity,FLT3 (human),8.19%
same,residual activity,FRK (human),93.9%
same,residual activity,GRK4 (human),99.8%
same,residual activity,GRK5 (human),97%
same,residual activity,GSK3A (human),33.9%
same,residual activity,HIPK2 (human),107%
same,residual activity,IKBKE (human),83.4%
same,residual activity,MAP2K2 (human),105%
same,residual activity,MAPKAPK3 (human),118%
same,residual activity,MAPKAPK5 (human),86.2%
same,residual activity,MARK4 (human),38.7%
same,residual activity,MELK (human),46.6%
same,residual activity,MST1R (human),101%
same,residual activity,NEK6 (human),104%
same,residual activity,NEK7 (human),96.8%
same,residual activity,PAK2 (human),101%
same,residual activity,PBK (human),86.3%
same,residual activity,PHKG2 (human),94.8%
same,residual activity,PRKCB1 (human),78.6%
same,residual activity,PRKCG (human),76.6%
same,residual activity,PRKCH (human),100%
same,residual activity,PRKD3 (human),49.5%
same,residual activity,PRKG2 (human),29.7%
same,residual activity,ROCK1 (human),93.9%
same,residual activity,[1],47.6%
same,residual activity,SRPK1 (human),86.4%
same,residual activity,SRPK2 (human),96.2%
same,residual activity,TSSK1B (human),86.5%
c1ccc(-c2cnc(Nc3ccc(OCCN4CCCC4)cc3)s2)cc1,residual activity,ABL1 (human),63.3%
same,residual activity,AURKA (human),95.3%
same,residual activity,CAMK4 (human),97.2%
same,residual activity,CAMKK1 (human),56.6%
same,residual activity,CDK1 CCNA2 (human),95.2%
same,residual activity,CDK5 CDK5R1 p25 (human),80.7%
same,residual activity,CHEK2 (human),99.4%
same,residual activity,CSNK1G3 (human),91.8%
same,residual activity,DAPK3 (human),105%
same,residual activity,DYRK1A (human),94.2%
same,residual activity,EPHA1 (human),85.3%
same,residual activity,EPHA3 (human),98.7%
same,residual activity,FGFR3 (human),98.2%
same,residual activity,FLT1 (human),74.5%
same,residual activity,FLT3 (human),3.1%
same,residual activity,FRK (human),83%
same,residual activity,GRK4 (human),98.3%
same,residual activity,GRK5 (human),99.4%
same,residual activity,GSK3A (human),99.2%
same,residual activity,HIPK2 (human),97.5%
same,residual activity,IKBKE (human),81.6%
same,residual activity,MAP2K2 (human),90.2%
same,residual activity,MAPKAPK3 (human),97.6%
same,residual activity,MAPKAPK5 (human),83.4%
same,residual activity,MARK4 (human),58.9%
same,residual activity,MELK (human),83.5%
same,residual activity,MST1R (human),107%
same,residual activity,NEK6 (human),102%
same,residual activity,NEK7 (human),100%
same,residual activity,PAK2 (human),94.8%
same,residual activity,PBK (human),108%
same,residual activity,PHKG2 (human),97%
same,residual activity,PRKCB1 (human),108%
same,residual activity,PRKCG (human),92.5%
same,residual activity,PRKCH (human),88.2%
same,residual activity,PRKD3 (human),74%
same,residual activity,PRKG2 (human),106%
same,residual activity,ROCK1 (human),102%
same,residual activity,[1],83.6%
same,residual activity,SRPK1 (human),99.9%
same,residual activity,SRPK2 (human),103%
same,residual activity,TSSK1B (human),96.5%
